Assay results taken from paper PMC4145624, “Simultaneous purification of nitrile hydratase and amidase of Alcaligenes sp. MTCC 10674” (3 Biotech, 2013).

Legend:
[1] = tested on: T1, Nitrile hydratase (Nhase); assay: acrylamide formation at […] nm; assay type: biochemical, Alcaligenes sp. MTCC 10674; settings: sodium phosphate buffer 0.125 M, pH 8.0, 15 °C (standard assay)
T1 construct: gene nthA; native, purified from Alcaligenes sp; MTCC 10674 cells (DEAE-Sepharose); heterodimer of 24 and 21 kDa, 47 kDa by native PAGE

Amidase = tested on: T2, Amidase; assay: ammonia release assay; assay type: biochemical, Alcaligenes sp. MTCC 10674; settings: sodium phosphate buffer 0.075 M, pH 8.0, 45 °C (standard assay); substrate named, not in the Km sentence
T2 construct: native, purified from Alcaligenes sp; MTCC 10674 cells (DEAE-Sepharose, Sephacryl S-100); dimer of 52 and 49 kDa, 114 kDa by native PAGE

SMILES: C=CC#N [acrylonitrile]
- Km [1]: 40 mM

SMILES: CCC(N)=O [propionamide]
- Km (Amidase): 45.5 mM
